Measured values: PubChem BioAssay AID192 (DTP/NCI, 2004)
Where “and” joins values, the source holds several entries; their conditions need not be identical. Equal entries are not always repeated. Toxic doses and inconclusive results are not listed. The calls were made as follows: active = survival T/C of 150% or more; inactive = T/C below 125% in these data.

Test system: BDF1 mice, B16 melanoma ip, median survival T/C
Experiment: NCI In Vivo Anticancer Drug Screen. Data for tumor model B16 Melanoma (intraperitoneal) in B6D2F1 (BDF1) mice
Conditions: endpoint: median survival time, higher = longer survival
Outline: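 Read-out: survival or tumor size, given as treated/control ratio. Controls received vehicle only; animals bore transplantable tumors.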

[1] = dose: 3.12 mg/kg/injection, schedule: Q01DX009 (ip), vehicle: saline
[2] = dose: 6.25 mg/kg/injection, schedule: Q01DX009 (ip), vehicle: saline
[3] = dose: 12.5 mg/kg/injection, schedule: Q01DX009 (ip), vehicle: saline
[4] = dose: 25.0 mg/kg/injection, schedule: Q01DX009 (ip), vehicle: saline
[5] = dose: 50.0 mg/kg/injection, schedule: Q01DX009 (ip), vehicle: saline
[6] = dose: 12.5 mg/kg/injection, schedule: Q01DX009 (ip), vehicle: Klucel (hydroxypropylcellulose) (HPC)
[7] = dose: 25.0 mg/kg/injection, schedule: Q01DX009 (ip), vehicle: Klucel (hydroxypropylcellulose) (HPC)
[8] = dose: 50.0 mg/kg/injection, schedule: Q01DX009 (ip), vehicle: saline with Tween-80

Measured: T/C

O=c1[nH]cc(F)c(=O)[nH]1
active: dose: 20.0 mg/kg/injection, schedule: Q01DX017 (ip), vehicle: saline 161 % of control and 169 % of control
inactive: dose: 0.5 mg/kg/injection, schedule: Q01DX009 (ip), vehicle: saline 107 % of control | dose: 1.25 mg/kg/injection, schedule: Q03HX024 (ip), vehicle: saline 110 % of control | dose: 2.0 mg/kg/injection, schedule: Q01DX009 (ip), vehicle: saline 118 % of control | dose: 2.5 mg/kg/injection, schedule: Q01DX017 (ip), vehicle: saline 104 % of control | dose: 2.5 mg/kg/injection, schedule: Q03HX024 (ip), vehicle: saline 112 % of control | [1] 102 % of control | dose: 3.8 mg/kg/injection, schedule: Q04DX003 (ip), vehicle: saline 116 % of control | dose: 5.0 mg/kg/injection, schedule: Q01DX001 (ip), vehicle: saline 105 % of control | dose: 5.0 mg/kg/injection, schedule: Q01DX009 (ip), vehicle: saline with Tween-80 104 % of control | dose: 5.0 mg/kg/injection, schedule: Q01DX017 (ip), vehicle: saline 107 % of control | dose: 5.0 mg/kg/injection, schedule: Q05DX010 (ip), vehicle: saline 115 % of control | [2] 91 % of control | dose: 7.0 mg/kg/injection, schedule: Q01DX009 (ip), vehicle: saline 117 % of control | dose: 7.5 mg/kg/injection, schedule: Q01DX009 (ip), vehicle: saline 117 % of control | dose: 7.5 mg/kg/injection, schedule: Q04DX003 (ip), vehicle: saline 116 % of control | dose: 7.8 mg/kg/injection, schedule: Q04DX003 (ip), vehicle: saline 104 % of control | dose: 10.0 mg/kg/injection, schedule: Q01DX001 (ip), vehicle: saline 107 % of control | dose: 10.0 mg/kg/injection, schedule: Q01DX009 (ip), vehicle: saline with Tween-80 104 % of control and 111 % of control and 114 % of control | dose: 10.0 mg/kg/injection, schedule: Q05DX010 (ip), vehicle: saline 120 % of control | dose: 12.0 mg/kg/injection, schedule: Q01DX009 (ip), vehicle: saline 115 % of control | [3] 123 % of control | dose: 12.5 mg/kg/injection, schedule: Q04DX005 (ip), vehicle: saline 107 % of control | dose: 13.0 mg/kg/injection, schedule: Q04DX003 (ip), vehicle: saline 108 % of control | dose: 15.0 mg/kg/injection, schedule: Q01DX009 (ip), vehicle: saline 121 % of control and 122 % of control | dose: 15.0 mg/kg/injection, schedule: Q04DX003 (ip), vehicle: saline 122 % of control | dose: 20.0 mg/kg/injection, schedule: Q01DX001 (ip), vehicle: saline 115 % of control | dose: 20.0 mg/kg/injection, schedule: Q01DX009 (ip), vehicle: saline with Tween-80 116 % of control and 119 % of control | dose: 21.6 mg/kg/injection, schedule: Q04DX003 (ip), vehicle: saline 103 % of control | [4] 119 % of control | dose: 25.0 mg/kg/injection, schedule: Q04DX003 (ip), vehicle: saline 122 % of control | dose: 25.0 mg/kg/injection, schedule: Q04DX005 (ip), vehicle: saline 117 % of control | dose: 30.0 mg/kg/injection, schedule: Q01DX009 (ip), vehicle: saline 124 % of control | dose: 30.0 mg/kg/injection, schedule: Q04DX003 (ip), vehicle: saline 117 % of control and 122 % of control | dose: 36.0 mg/kg/injection, schedule: Q04DX003 (ip), vehicle: saline 104 % of control | dose: 40.0 mg/kg/injection, schedule: Q01DX001 (ip), vehicle: saline 120 % of control | dose: 40.0 mg/kg/injection, schedule: Q01DX009 (ip), vehicle: saline with Tween-80 88 % of control and 97 % of control | dose: 50.0 mg/kg/injection, schedule: Q01DX001 (ip), vehicle: saline 110 % of control | dose: 50.0 mg/kg/injection, schedule: Q04DX003 (ip), vehicle: saline 120 % of control | dose: 50.0 mg/kg/injection, schedule: Q04DX005 (ip), vehicle: saline 115 % of control | dose: 60.0 mg/kg/injection, schedule: Q01DX009 (ip), vehicle: saline 39 % of control | dose: 60.0 mg/kg/injection, schedule: Q04DX003 (ip), vehicle: saline 52 % of control and 119 % of control | dose: 90.0 mg/kg/injection, schedule: Q04DX003 (ip), vehicle: saline 123 % of control | dose: 100.0 mg/kg/injection, schedule: Q01DX001 (ip), vehicle: saline 110 % of control | dose: 120.0 mg/kg/injection, schedule: Q04DX003 (ip), vehicle: saline 93 % of control | dose: 200.0 mg/kg/injection, schedule: Q01DX001 (ip), vehicle: saline 110 % of control | dose: 240.0 mg/kg/injection, schedule: Q04DX003 (ip), vehicle: saline 73 % of control | dose: 480.0 mg/kg/injection, schedule: Q04DX003 (ip), vehicle: saline 47 % of control

CCc1cccc2ccccc12
inactive: dose: 75.0 mg/kg/injection, schedule: Q01DX009 (ip), vehicle: Klucel (hydroxypropylcellulose) (HPC) 118 % of control | dose: 150.0 mg/kg/injection, schedule: Q01DX009 (ip), vehicle: Klucel (hydroxypropylcellulose) (HPC) 121 % of control | dose: 300.0 mg/kg/injection, schedule: Q01DX009 (ip), vehicle: Klucel (hydroxypropylcellulose) (HPC) 106 % of control

O=C(Nc1ccccc1)OCCOc1ccc(Cl)cc1Cl
inactive: dose: 100.0 mg/kg/injection, schedule: Q01DX009 (ip), vehicle: Klucel (hydroxypropylcellulose) (HPC) 96 % of control | dose: 200.0 mg/kg/injection, schedule: Q01DX009 (ip), vehicle: Klucel (hydroxypropylcellulose) (HPC) 114 % of control | dose: 400.0 mg/kg/injection, schedule: Q01DX009 (ip), vehicle: Klucel (hydroxypropylcellulose) (HPC) 110 % of control

CN1C(=O)OC(C)(C)C1=O
inactive: dose: 0.78 mg/kg/injection, schedule: Q04DX003 (ip), vehicle: saline 95 % of control | dose: 1.56 mg/kg/injection, schedule: Q04DX003 (ip), vehicle: saline 100 % of control | dose: 3.12 mg/kg/injection, schedule: Q04DX003 (ip), vehicle: saline 105 % of control | dose: 6.25 mg/kg/injection, schedule: Q04DX003 (ip), vehicle: saline 105 % of control | dose: 12.5 mg/kg/injection, schedule: Q04DX003 (ip), vehicle: saline 100 % of control | [4] 110 % of control | [5] 100 % of control | dose: 100.0 mg/kg/injection, schedule: Q01DX009 (ip), vehicle: saline 100 % of control | dose: 200.0 mg/kg/injection, schedule: Q01DX009 (ip), vehicle: saline 97 % of control | dose: 400.0 mg/kg/injection, schedule: Q01DX009 (ip), vehicle: saline 94 % of control

CCCCCCC/C=C/C(=O)OC1C(OC2C(OC(CCCCCCC)CC(=O)OC(CCCCCCC)CC(=O)O)OC(C)C(O)C2O)OC(C)C(O)C1O (stereo not given)
inactive: [6] 90 % of control | [7] 104 % of control | dose: 50.0 mg/kg/injection, schedule: Q01DX009 (ip), vehicle: Klucel (hydroxypropylcellulose) (HPC) 92 % of control

CN(C)N=Nc1ccccc1
inactive: dose: 6.25 mg/kg/injection, schedule: Q01DX009 (ip), vehicle: Klucel (hydroxypropylcellulose) (HPC) 120 % of control | [6] 112 % of control and 123 % of control | [7] 117 % of control

C=CCN(CC=C)CCN(CC)CC
inactive: [2] 93 % of control | [3] 94 % of control | [4] 94 % of control | [5] 91 % of control

CC(CN1CCN(C)CC1)CN1c2ccccc2Sc2ccc(C(F)(F)F)cc21 (stereo not given)
inactive: dose: 1.56 mg/kg/injection, schedule: Q01DX009 (ip), vehicle: saline 110 % of control | [1] 110 % of control | [2] 123 % of control | [3] 107 % of control

O=C1C=CC(=O)N1c1ccc(Cl)cc1
inactive: dose: 1.25 mg/kg/injection, schedule: Q01DX009 (ip), vehicle: Klucel (hydroxypropylcellulose) (HPC) 97 % of control

CC1=CC(=NN=c2cc(C)n([O-])c(C)c2)C=C(C)[N+]1=O
inactive: dose: 12.5 mg/kg/injection, schedule: Q01DX009 (ip), vehicle: saline with Tween-80 111 % of control | dose: 25.0 mg/kg/injection, schedule: Q01DX009 (ip), vehicle: saline with Tween-80 115 % of control | [8] 118 % of control

Cc1ccc(S(=O)(=O)N2CCC(C(=O)O)(c3ccccc3)CC2)cc1
inactive: [8] 113 % of control | dose: 100.0 mg/kg/injection, schedule: Q01DX009 (ip), vehicle: saline with Tween-80 99 % of control | dose: 200.0 mg/kg/injection, schedule: Q01DX009 (ip), vehicle: saline with Tween-80 103 % of control
